Measurements: patent EP2451450B1, “Inhibitors of proline racemase enzymes for the treatment of Trypanosoma spp infections” (Institut Pasteur, priority 2009, dated 2011)

Target: T1, TcPRAC (Trypanosoma cruzi, UniProt Q4DA80)
T1 construct: implied only by nickel IMAC purification; made in house; host or cells: E. coli BL21 (DE3)
Assay: L-proline racemization assay by polarimetry
Format: biochemical
Conditions: for potency relative to PYC in terms of TcPRAC inhibition: based on the DAAOx test and polarimetry; for Racemization Inhibition: L-Proline 20 mM, 30 minutes 37°C, 0.25 µM TcPRAC
Experimental: Briefly, classical assays of Proline racemization induced by TcPRAC were performed in tubes in a final volume of 1.5 ml and optical rotations measured in a polarimeter 241MC (Perkin Elmer). Parallel assays of Proline racemization were transposed into microplates in a final volume of 100 µl, as follows: serial dilutions of L- Proline ranging from 40 mM to 2.5 mM were prepared in 0.2 M sodium acetate pH 6.0 containing 0.25 mM rTcPRAC and loaded into microplate wells in the presence or in the absence of 0 - 20 µM pyrrole-2 carboxylic acid (PYC) or of similar dilutions of unknown potential inhibitors. Specific control wells were included omitting the TcPRAC and/or the PYC.
The values presented in Table 2B correspond to racemization reactions performed in the absence or in the presence of the different inhibitors. Note that 6 µM PYC is necessary to inhibit 100 % of the racemization of 10-20 mM L-proline. Briefly, L-Proline (20 mM) were incubated for 30 minutes at 37°C in test tubes with or without 0.25 µM TcPRAC in 0.2 M sodium acetate pH 6. Reactions were stopped by heating at 65° C for 10 minutes. Reaction volumes were analyzed for D-Proline formation, by measuring optical rotations in a polarimeter (365nm).

T1 sequence (Q4DA80 32-423): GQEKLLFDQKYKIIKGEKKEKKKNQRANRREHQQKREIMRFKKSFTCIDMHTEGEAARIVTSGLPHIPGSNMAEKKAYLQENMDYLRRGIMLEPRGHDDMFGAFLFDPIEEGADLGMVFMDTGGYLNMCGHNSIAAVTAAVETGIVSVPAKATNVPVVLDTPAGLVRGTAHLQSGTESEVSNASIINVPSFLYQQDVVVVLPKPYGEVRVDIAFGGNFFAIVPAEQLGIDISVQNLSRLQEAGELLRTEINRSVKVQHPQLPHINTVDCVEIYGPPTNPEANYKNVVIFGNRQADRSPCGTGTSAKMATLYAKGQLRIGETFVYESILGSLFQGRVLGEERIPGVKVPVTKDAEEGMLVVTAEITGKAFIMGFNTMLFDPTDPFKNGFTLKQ

Structure (SMILES) | potency relative to PYC in terms of TcPRAC inhibition [fold] | Racemization Inhibition (ligand 2.5 µM) [%] | Racemization Inhibition (ligand 10.0 µM) [%] | Racemization Inhibition (ligand 3.0 µM) [%]
O=C(O)/C=C/C(=O)CBr [Br-OxoPA, (E)-5-bromo-4-oxopent-2-enoic acid] | 4 | 50.0 | 81.3 | –
CC(=O)/C=C/C(=O)O [OxoPA, (E)-4-oxopent-2-enoic acid] | 2 | – | – | 50.0
